Data from patent publication US4725683A, “Fluorophenoxyphenoxypropionates and derivatives thereof” (The Dow Chemical Company, priority 1985, dated 1988).
Read-outs that look alike come from different tables or passages of the source.

Key:
Assay in all cases: Postemergent activity
Type in all cases: in vivo
Blackgrass = tested on: Blackgrass
Experimental: (§1) Representative compositions of the present invention were evaluated for the postemergence control of species of plants listed in Table A. In these evaluations, pots of the plant species listed in Table A, grown to a height of about 10 cms, were used. […] The spray compositions were made by mixing the active ingredient in acetone to 1/2 the final volume, i.e., twice the final concentration. An equal amount of water was added to the active ingredient/acetone mixture wherein the water contained 0.1 percent by weight of TWEEN® 200 surfactant. The application to the plants was made to the point of run-off and was carried out with conventional spraying equipment. […] Thereafter, the pots were maintained under conditions conducive for plant growth.

Barley = tested on: Barley
Experimental: as §1

Yellow Foxtail = tested on: Yellow Foxtail
Experimental: as §1

Green Foxtail = tested on: Green Foxtail
Experimental: as §1

Cheatgrass = tested on: Cheatgrass
Experimental: as §1

Wild Oats = conditions: Avena fatua, post-emergence, 336 h
Outline: (§2)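 Pots of plants about 10 cm tall sprayed to run-off at 125, 62.5, 31.25, 15.6, 7.8 and 3.9 ppm. Spray: active in acetone mixed with an equal volume of water containing 0.1% TWEEN 200. Growth scored two weeks later on a 0–100 scale (0 no effect, 100 complete kill).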

Wheat = conditions: Triticum aestivum, post-emergence, 336 h, read-out: % Control
Outline: as §2

COC(=O)C(C)Oc1ccc(Oc2ccc(Cl)cc2F)cc1 (racemic) [Example 4-Chloro-, 2-[4-(4-chloro-2-fluorophenoxy)phenoxy]propionic acid methyl ester]
% Control (Blackgrass; 1.56 ppm): 50%
% Control (Blackgrass; 3.1 ppm): 50%
% Control (Blackgrass; 6.3 ppm): 100%
% Control (Blackgrass; 12.5 ppm): 100%
% Control (Blackgrass; 25 ppm): 99%
% Control (Blackgrass; 50 ppm): 100%
% Control (Blackgrass; 100 ppm): 100%
% Control (Barley; 15.6 ppm): 0%
% Control (Barley; 31.25 ppm): 0%
% Control (Barley; 62.5 ppm): 0%
% Control (Barley; 125 ppm): 0%
% Control (Barley; 250 ppm): 0%
% Control (Barley; 500 ppm): 50%
% Control (Yellow Foxtail; 1.56 ppm): 50%
% Control (Yellow Foxtail; 3.1 ppm): 80%
% Control (Yellow Foxtail; 6.3 ppm): 100%
% Control (Yellow Foxtail; 12.5 ppm): 100%
% Control (Yellow Foxtail; 25 ppm): 100%
% Control (Yellow Foxtail; 50 ppm): 100%
% Control (Yellow Foxtail; 100 ppm): 100%
% Control (Green Foxtail; 1.56 ppm): 95%
% Control (Green Foxtail; 3.1 ppm): 100%
% Control (Green Foxtail; 6.3 ppm): 100%
% Control (Green Foxtail; 12.5 ppm): 100%
% Control (Green Foxtail; 25 ppm): 100%
% Control (Green Foxtail; 50 ppm): 100%
% Control (Green Foxtail; 100 ppm): 100%
% Control (Cheatgrass; 1.56 ppm): 0%
% Control (Cheatgrass; 3.1 ppm): 0%
% Control (Cheatgrass; 6.3 ppm): 0%
% Control (Cheatgrass; 12.5 ppm): 0%
% Control (Cheatgrass; 25 ppm): 0%
% Control (Cheatgrass; 50 ppm): 10%
% Control (Cheatgrass; 100 ppm): 40%
pest or weed control at 15.6 ppm (Wild Oats; read-out: % Control): 40%
pest or weed control at 31.25 ppm (Wild Oats; read-out: % Control): 100%
pest or weed control at 62.5 ppm (Wild Oats; read-out: % Control): 95%
pest or weed control at 125 ppm (Wild Oats; read-out: % Control): 90%
pest or weed control at 250 ppm (Wild Oats; read-out: % Control): 100%
pest or weed control at 500 ppm (Wild Oats; read-out: % Control): 100%
plant injury at 15.6 ppm (Wheat): 0%
plant injury at 31.25 ppm (Wheat): 0%
plant injury at 62.5 ppm (Wheat): 0%
plant injury at 125 ppm (Wheat): 0%
plant injury at 250 ppm (Wheat): 0%
plant injury at 500 ppm (Wheat): 40%

COC(=O)C(C)Oc1ccc(Oc2ccc(C(F)(F)F)cc2F)cc1 (stereo not shown) [2-[4-(2-fluoro-4-trifluoromethylphenoxy)phenoxy]propionic acid methyl ester]
% Control (Yellow Foxtail; 3.9 ppm): 35%
% Control (Yellow Foxtail; 7.8 ppm): 100%
% Control (Yellow Foxtail; 15.6 ppm): 100%
% Control (Yellow Foxtail; 31.25 ppm): 100%
% Control (Yellow Foxtail; 62.5 ppm): 100%
% Control (Yellow Foxtail; 125 ppm): 100%
pest or weed control at 3.9 ppm (Wild Oats; 3.9 ppm): 0%
pest or weed control at 7.8 ppm (Wild Oats; 7.8 ppm, read-out: % Control): 0%
pest or weed control at 15.6 ppm (Wild Oats; 15.6 ppm, read-out: % Control): 60%
pest or weed control at 31.25 ppm (Wild Oats; 31.25 ppm, read-out: % Control): 100%
pest or weed control at 62.5 ppm (Wild Oats; 62.5 ppm, read-out: % Control): 100%
pest or weed control at 125 ppm (Wild Oats; 125 ppm, read-out: % Control): 100%
plant injury at 3.9 ppm (Wheat; 3.9 ppm): 0%
plant injury at 7.8 ppm (Wheat; 7.8 ppm): 60%
plant injury at 15.6 ppm (Wheat; 15.6 ppm): 90%
plant injury at 31.25 ppm (Wheat; 31.25 ppm): 100%
plant injury at 62.5 ppm (Wheat; 62.5 ppm): 100%
plant injury at 125 ppm (Wheat; 125 ppm): 100%
